Experimental data: publication PMC9319560 (Viruses, 2022)
“Also recorded” adds a separate entry of the source. Where two headings read alike, the source gives them in different places. No end group written: not given here.

Key:
West Nile virus (WNV) [1] = details: for reduction in the viral titer (factor): WNV inoculum 10^5.27 TCID50/mL pre-incubated 1 h at 37 °C (legend: 2 h), residual titer on Vero cells, versus WNV incubated alone, 5 independent experiments
viral envelope = details: previous studies; cited from earlier work
viperin (RSAD2) = assay: Viperin; assay type: cell-based, human; details: NHEK, WNV MOI 0.1, 48 h, immunofluorescence, 3 independent experiments
[2] = test system: pro-inflammatory cytokine release; details: cell-specific and concentration-dependent; cell supernatant; cited from earlier work
[3] = test system: human primary keratinocytes (NHEK); assay type: cell-based; details: 3 h, RT-qPCR; for pro-inflammatory effects of the peptide alone (mRNA of inflammatory markers): peptide alone 0.1, 1 and 10 µg/mL, 6 independent experiments (Figure S1)
[4] = test system: normal human epidermal keratinocytes (NHEK); assay: LDH release assay on NHEK; assay type: cell-based; details: concentrations up to 10 µg/mL (1 to 20 µg/mL tested), 48 h per b34/b35 (24 h per b9), compared with non-treated cells, mean of at least 3 independent experiments
West Nile virus (WNV) [5] = assay: WNV RNA quantification by RT-qPCR in infected human primary keratinocytes; assay type: cell-based; details: NHEK, WNV MOI 0.1, 24 h; for viral load in the cell monolayers: peptide 1 or 10 µg/mL added 1 h before infection, versus untreated; for effect on WNV replication in human primary keratinocytes: peptide 1 or 10 µg/mL, viral load in monolayer and supernatant by RT-qPCR
[6] = test system: normal human epidermal keratinocytes (NHEK); assay: XTT cell viability assay on NHEK; assay type: cell-based; details: concentrations up to 10 µg/mL (1 to 20 µg/mL tested), 48 h incubation, compared with non-treated cells, mean of at least 3 independent experiments
[7] = test system: human primary keratinocytes (NHEK) infected by WNV; assay: Inflammatory marker mRNA expression in NHEK infected with WNV, RT-qPCR; assay type: cell-based; details: WNV MOI 0.1, 24 h, 1 or 10 µg/mL peptide, versus WNV alone, similar trend, fold changes less marked, 5 independent experiments
[8] = test system: human immunodeficiency virus; details: concentration-dependent antiviral effect against human immunodeficiency virus; cited from earlier work
DENV = details: pretreatment by 30 µg/mL of peptide; cited from earlier work
[9] = test system: human primary keratinocytes (NHEK); assay: Inflammatory marker mRNA expression in NHEK stimulated with poly(I:C), RT-qPCR; assay type: cell-based; details: NHEK stimulated with 0.1 µg/mL poly(I:C) alone, 3 h
[10] = 1 µg/mL peptide, versus WNV alone, p < 0.05
[11] = whatever the concentration of the peptide (1 or 10 µg/mL)
[12] = RT-qPCR, 5 independent experiments

Row | Substance | reduction in the viral titer (factor) (West Nile virus (WNV) [1]; 1 µg/mL peptide) | reduction in the viral titer (factor) (West Nile virus (WNV) [1]; 10 µg/mL peptide) | reduction in the viral infectious titer (West Nile virus (WNV) [1]; WNV strain incubated with peptide, concentration not given) [log10] | concentration from which degradation of the viral envelope was observed (viral envelope) [µg/mL] | RSAD2 protein expression (viperin (RSAD2); [10]) | RSAD2 protein expression (viperin (RSAD2); [11]) | concentration from which decreased pro-inflammatory cytokine release was seen [2] [µg/mL] | pro-inflammatory effects of the peptide alone (mRNA of inflammatory markers) [3] | keratinocyte viability (LDH release) [4] | decrease of viral RNA in the cell supernatant (West Nile virus (WNV) [5]; 10 µg/mL peptide added 1 h before infection, RT-qPCR, versus untreated cells, 5 independent experiments, p < 0.05) [fold] | viral load in the cell monolayers (West Nile virus (WNV) [5]; [12]) | effect on WNV replication in human primary keratinocytes (West Nile virus (WNV) [5]) | keratinocyte viability (XTT) [6] | expression of ISGs and inflammatory markers (mRNA) during WNV infection [7] | CXCL-8 mRNA expression, peptide alone ([3]; 10 µg/mL peptide alone, p < 0.05 (Figure S1)) | concentration at which the antiviral effect is significant [8] | DENV titer (DENV) | inflammatory response of NHEK [9]
1 | LL-37 | 14 | 95 | 2 | ≥ 10 | significantly increased | enhanced | ≥ 25 | no significant pro-inflammatory effects | greater than or equal to 90% | 5.5 | No significant difference | inhibits WNV replication | greater than or equal to 90% | not significant | – | – | – | –
2 | hBD-3 (GIINTLQKYYCRVRGGRCAVLSCLPKEEQIGKCSTRGRKCCRRKK; ends and bridges not checked; cysteine pairing not given here; UniProt P81534 23-67, looked up) [type 3 human β-defensin, skin antimicrobial peptide; purchased from PeproTech] | – | – | – | – | significantly increased | enhanced | – | no significant pro-inflammatory effects | greater than or equal to 90% | – | No significant difference | does not seem to have any effect; also recorded: not reduced | greater than or equal to 90% | – | notable exception | greater than 25 µg/mL | did not result in a significant decrease | –
3 | poly(I:C) | – | – | – | – | – | – | – | – | – | – | – | – | – | – | – | – | – | elicited an inflammatory response
